Reference: patent US20050187181A1 (University of Maryland, priority 2004, published 2005)
“Also recorded” adds a separate entry of the source.

Columns and labels:
[1] = tested on: Na/K ATPase; assay: Na/K ATPase assay (86Rb uptake into red blood cells);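 on all read-outs here: washed human red blood cells in K-free Ringer, test agent preincubated 20 min, then 86Rb uptake over 4 h at 37 °C counted as CPM per tube versus water control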; settings: for relative effectiveness at stimulating Na/K ATPase: 10^-3 Molar (FIG. 8); for stimulation of Na/K ATPase: human red blood cells, dose response (FIG. 3b, FIG. 8); for stimulation of Na/K ATPase in the presence of ouabain: partial inhibition / sub maximal doses of ouabain (FIG. 9); for effect of hormones on Na/K ATPase activity: doses of 10^-3 to 10^-9 M; for Na/K ATPase stimulatory activity of adenosine analogs and metabolites: 1 mM (FIG. 4); for effect of equilibrative nucleoside transport inhibitor on purine stimulation of Na/K ATPase: dipyridamole 1 mM, NBTI 10 μM, purine 1 mM (FIGS. 12 and 13); for effect of pyrimidines on Na/K ATPase: doses ranging from 10^-3 to 10^-10 M; for Na/K ATPase activity in erythrocytes: 6-thio inosine and 6-thio guanosine both 1 mM (FIG. 17); for effect of adenosine-receptor blocker on stimulation of Na/K ATPase by inosine, adenosine, guanosine, deoxyadenosine or deoxyguanosine: FIG. 11; for effect of adenosine-receptor blocker on adenosine stimulation of Na/K ATPase: equimolar doses added together with adenosine (FIG. 5); for effect of phosphate analogs and bases on Na/K ATPase: FIG. 10
Procedure: Human red blood cells of any group-type were donated for research by the Blood Bank of the University Of Maryland, School of Medicine. Five ml of red cells are washed 3 times in 40 ml of Potassium free Ringers solution (141 mM NaCl, 1 mM H2NaPO4, 0.5 mM CaCl2, 1 mM MgSO4, 4.5 mM glucose, 10 mM HEPES pH7.4). 50 μl of washed red cells are added to 220 μl of potassium free Ringers solution. 30, 10, 3 or 1 μl of ultra-filtrate, HPLC (high performance liquid chromatography) fraction, or adenosine, inosine, guanosine, deoxyadenosine, deoxyguanosine, caffeine, aminophylline, dipyridamole, NBTI, 6thioinosine, 6thioguanosine, or EHNA (all in buffer) is added to the mixture and incubated for 20 min. 4 μCi of 86RbCl is added and incubated for 4 hrs at 37° C. The mixture is than washed three times with 4° C. Potassium free Ringers solution and the cells counted in a gamma counter (Packard, Cobra II). Na/K ATPase activity is expressed as the CPM (counts per minute) (CPM/tube*4 hrs). The effects of ultra-filtrate or HPLC fractions on ^86Rb uptake into red cells are compared to equal volumes of either water (control) or, in some cases, 0.01 mM Ouabain (maximal inhibition).

[2] = tested on: rats in severe hemorrhagic shock
Procedure: Pentobarbital-anesthetized rats were subjected to severe hemorrhagic shock. Five groups of eight rats were resuscitated.
Plasma K^+ was measured from plasma taken before hemorrhage, before resuscitation and 0.5 hrs after resuscitation using a K^+ electrode (Jenco Electronics, Inc., San Diego, Calif.). Survival time between groups was compared by Kaplan-Meier survival Analysis.

Nc1nc2c(ncn2[C@@H]2O[C@H](CO)[C@@H](O)[C@H]2O)c(=O)[nH]1 [guanosine]
relative effectiveness at stimulating Na/K ATPase [1]: both equally effective
stimulation of Na/K ATPase [1]: stimulated Na/K ATPase in a dose-dependent manner
stimulation of Na/K ATPase in the presence of ouabain [1]: overcame partial inhibition by ouabain
bradycardia on resuscitation from hemorrhagic shock ([2]; 2.5 mM in saline): did not cause the bradycardia
time to 50% mortality ([2]; 2.5 mM in saline): sooner than with inosine
time to 100% mortality ([2]; 2.5 mM in saline): 200 min
effect on shock-elevated plasma K^+ ([2]; 2.5 mM in saline, 0.5 hr): lowered the shock-elevated plasma K^+
Plasma K^+ 0.5 hr after Resuscitation ([2]; 2.5 mM in saline, mean ± SE, N = 7/group): 3.01 ± 0.15 mM
adverse effects on resuscitation from hemorrhagic shock ([2]; rat, in vivo): without any adverse effects
survival compared to saline and cytidine controls (Kaplan-Meier) ([2]; single dose of 2.5 mM in saline, 8 rats/group, p<0.001): survived significantly longer than saline or cytidine controls; also recorded: significantly increased survival; also recorded: survived significantly longer

NC[C@H](O)c1ccc(O)c(O)c1 [norepinephrine]
effect of hormones on Na/K ATPase activity [1]: had no effect on Na/K ATPase activity

Nc1ncnc2c1ncn2[C@@H]1O[C@H](COP(=O)(O)O)[C@@H](O)[C@H]1O [AMP]
Na/K ATPase stimulatory activity of adenosine analogs and metabolites [1]: little or no Na/K ATPase stimulatory activity

O=[N+]([O-])c1ccc(CSc2ncnc3c2ncn3[C@@H]2O[C@H](CO)[C@@H](O)[C@H]2O)cc1 [NBTI, S-(4-nitrobenzyl)-6-thioinosine]
effect of equilibrative nucleoside transport inhibitor on purine stimulation of Na/K ATPase [1]: blocked stimulation of Na/K ATPase by any of the five purines tested

O=c1ccn([C@@H]2O[C@H](CO)[C@@H](O)[C@H]2O)c(=O)[nH]1 [uridine]
effect of pyrimidines on Na/K ATPase [1]: had no effect in the assay

Nc1nc2c(ncn2[C@H]2C[C@H](O)[C@@H](CO)O2)c(=O)[nH]1 [deoxyguanosine]
stimulation of Na/K ATPase [1]: stimulated Na/K ATPase in a dose-dependent manner
stimulation of Na/K ATPase in the presence of ouabain [1]: overcame partial inhibition by ouabain

O=c1[nH]c(=O)c2[nH]c(=O)[nH]c2[nH]1 [uric acid]
Na/K ATPase stimulatory activity of adenosine analogs and metabolites [1]: little or no Na/K ATPase stimulatory activity

Nc1ncnc2c1ncn2[C@@H]1O[C@H](COP(=O)(O)OP(=O)(O)OP(=O)(O)O)[C@@H](O)[C@H]1O [ATP]
Na/K ATPase stimulatory activity of adenosine analogs and metabolites [1]: little or no Na/K ATPase stimulatory activity

OCCN(CCO)c1nc(N2CCCCC2)c2nc(N(CCO)CCO)nc(N3CCCCC3)c2n1 [dipyridamole]
effect of equilibrative nucleoside transport inhibitor on adenosine stimulation of Na/K ATPase ([1]; dipyridamole 1 mM (FIG. 6)): blocked adenosine stimulation of Na/K ATPase
effect of equilibrative nucleoside transport inhibitor on purine stimulation of Na/K ATPase [1]: blocked stimulation of Na/K ATPase by any of the five purines tested

CNC[C@H](O)c1ccc(O)c(O)c1 [epinephrine]
effect of hormones on Na/K ATPase activity [1]: had no effect on Na/K ATPase activity

CCCCCC[C@@H]([C@@H](C)O)n1cnc2c(N)ncnc21 (racemic) [EHNA, erythrohydroxy3-nonyl-adenine]
Na/K ATPase activity in erythrocytes [1]: stimulate Na/K ATPase

Insulin
effect of hormones on Na/K ATPase activity [1]: had no effect on Na/K ATPase activity

Cn1c(=O)c2[nH]cnc2n(C)c1=O [aminophylline]
effect of adenosine-receptor blocker on stimulation of Na/K ATPase by inosine, adenosine, guanosine, deoxyadenosine or deoxyguanosine [1]: Neither of these adenosine-receptor blockers had a significant effect on stimulation of Na/K ATPase
effect of adenosine-receptor blocker on adenosine stimulation of Na/K ATPase [1]: did not affect the ability of adenosine to stimulate Na/K ATPase

O=c1[nH]cnc2nc[nH]c12 [hypoxanthine]
Na/K ATPase stimulatory activity of adenosine analogs and metabolites [1]: little or no Na/K ATPase stimulatory activity
effect of phosphate analogs and bases on Na/K ATPase [1]: None of the purine analogs significantly affected Na/K ATPase

OC[C@H]1O[C@@H](n2cnc3c(S)ncnc32)[C@H](O)[C@@H]1O [6-thioinosine]
Na/K ATPase activity in erythrocytes [1]: stimulate Na/K ATPase

N[C@@H](Cc1cc(I)c(Oc2cc(I)c(O)c(I)c2)c(I)c1)C(=O)O [thyroxine]
effect of hormones on Na/K ATPase activity [1]: had no effect on Na/K ATPase activity

NCCc1ccc(O)c(O)c1 [dopamine]
effect of hormones on Na/K ATPase activity [1]: had no effect on Na/K ATPase activity

NC(=O)CC[C@@H]1NC(=O)[C@H](Cc2ccccc2)NC(=O)[C@H](Cc2ccc(O)cc2)NC(=O)[C@@H](N)CSSC[C@@H](C(=O)N2CCC[C@H]2C(=O)N[C@@H](CCCN=C(N)N)C(=O)NCC(N)=O)NC(=O)[C@H](CC(N)=O)NC1=O [vasopressin]
effect of hormones on Na/K ATPase activity [1]: had no effect on Na/K ATPase activity

Nc1ncnc2c1ncn2[C@@H]1O[C@H](COP(=O)(O)OP(=O)(O)O)[C@@H](O)[C@H]1O [ADP]
Na/K ATPase stimulatory activity of adenosine analogs and metabolites [1]: little or no Na/K ATPase stimulatory activity

Nc1ncnc2nc[nH]c12 [adenine]
Na/K ATPase stimulatory activity of adenosine analogs and metabolites [1]: little or no Na/K ATPase stimulatory activity
effect of phosphate analogs and bases on Na/K ATPase [1]: None of the purine analogs significantly affected Na/K ATPase

Nc1ccn([C@H]2C[C@H](O)[C@@H](CO)O2)c(=O)n1 [deoxycytidine]
effect of pyrimidines on Na/K ATPase [1]: had no effect in the assay

Cn1c(=O)c2c(ncn2C)n(C)c1=O [caffeine]
effect of adenosine-receptor blocker on stimulation of Na/K ATPase by inosine, adenosine, guanosine, deoxyadenosine or deoxyguanosine [1]: Neither of these adenosine-receptor blockers had a significant effect on stimulation of Na/K ATPase
effect of adenosine-receptor blocker on adenosine stimulation of Na/K ATPase [1]: did not affect the ability of adenosine to stimulate Na/K ATPase

Nc1ncnc2c1ncn2[C@H]1C[C@H](O)[C@@H](CO)O1 [deoxyadenosine]
relative effectiveness at stimulating Na/K ATPase [1]: less effective than guanosine and inosine, but more effective than deoxyguanosine
stimulation of Na/K ATPase [1]: stimulated Na/K ATPase in a dose-dependent manner
stimulation of Na/K ATPase in the presence of ouabain [1]: overcame partial inhibition by ouabain

Nc1nc2nc[nH]c2c(=O)[nH]1 [guanine]
effect of phosphate analogs and bases on Na/K ATPase [1]: None of the purine analogs significantly affected Na/K ATPase

O=c1[nH]c(=O)c2[nH]cnc2[nH]1 [xanthine]
Na/K ATPase stimulatory activity of adenosine analogs and metabolites [1]: little or no Na/K ATPase stimulatory activity

Cc1cn([C@H]2C[C@H](O)[C@@H](CO)O2)c(=O)[nH]c1=O [thymidine]
effect of pyrimidines on Na/K ATPase [1]: had no effect in the assay

Nc1nc2c(ncn2[C@@H]2O[C@H](CO)[C@@H](O)[C@H]2O)c(=S)[nH]1 [6-thioguanosine]
Na/K ATPase activity in erythrocytes [1]: stimulate Na/K ATPase

C[C@@H]1O[C@@H](O[C@H]2C[C@@H](O)[C@]3(CO)[C@H]4[C@H](O)C[C@]5(C)[C@@H](C6=CC(=O)OC6)CC[C@]5(O)[C@@H]4CC[C@]3(O)C2)[C@H](O)[C@H](O)[C@H]1O [ouabain]
inhibition of Na/K ATPase stimulation by the rat plasma ultra-filtrate ([1]; FIG. 3a): inhibited in a dose-dependent manner
inhibition of Na/K ATPase stimulation by adenosine ([1]; FIG. 3c): inhibited in a dose dependent manner
inhibition of Na/K ATPase stimulation by inosine, guanosine, deoxyadenosine and deoxyguanosine ([1]; maximal doses of ouabain (FIG. 9)): inhibited by maximal doses of ouabain
